Tests used:
PLK3 = target: T1, PLK3 (Homo sapiens, UniProt Q9H4B4); test: Kinase panel (Millipore); assay type: biochemical; details: 1 µM, ATP at Km
T1 construct: purchased Millipore (KinaseProfiler) kinase panel

cMET (D1246H) = cMET (D1246H) (Homo sapiens, UniProt P08581, D1228H); details: 1 µM, ATP at Km
[1] = female, NMRI, mouse, in vivo
GSK3ALPHA = GSK3ALPHA (Homo sapiens, UniProt P49840); test: Kinase panel (Millipore); assay type: biochemical; details: 1 µM, ATP at Km
cMET (D1246N) = cMET (D1246N) (Homo sapiens, UniProt P08581, D1228N); details: 1 µM, ATP at Km
motilin (h) = motilin (h) (Homo sapiens, UniProt O43193); test: CEREP binding assay; details: agonist radioligand, read-out: % Inhibition of Control Specific Binding
MC1 = target: T2, MC1 (Mus musculus, UniProt Q01727); test: CEREP binding assay; details: agonist radioligand, read-out: % Inhibition of Control Specific Binding
T2 construct: purchased Millipore (KinaseProfiler) kinase panel

MRCKALPHA = target: T3, MRCKALPHA (Homo sapiens, UniProt Q5VT25); test: Kinase panel (Millipore); assay type: biochemical; details: 1 µM, ATP at Km
T3 construct: purchased Millipore (KinaseProfiler) kinase panel

beta 3 (h) = target: T4, beta 3 (h) (Homo sapiens, UniProt P13945); test: CEREP binding assay; details: antagonist radioligand, read-out: % Inhibition of Control Specific Binding
T4 construct: purchased Millipore (KinaseProfiler) kinase panel

PKG1BETA = target: T5, PKG1BETA (Homo sapiens, UniProt Q13976); test: Kinase panel (Millipore); assay type: biochemical; details: 1 µM, ATP at Km
T5 construct: purchased Millipore (KinaseProfiler) kinase panel

ETB (h) = target: T6, ETB (h) (Homo sapiens, UniProt P24530); test: CEREP binding assay; details: agonist radioligand, read-out: % Inhibition of Control Specific Binding
T6 construct: purchased Millipore (KinaseProfiler) kinase panel

EPHA5 = target: T7, EPHA5 (Homo sapiens, UniProt P54756); test: Kinase panel (Millipore); assay type: biochemical; details: 1 µM, ATP at Km
T7 construct: purchased Millipore (KinaseProfiler) kinase panel

PIM-2 = PIM-2 (Homo sapiens, UniProt Q9P1W9); test: Kinase panel (Millipore); assay type: biochemical; details: 1 µM, ATP at Km
BMX = target: T8, BMX (Homo sapiens, UniProt P51813); test: Kinase panel (Millipore); assay type: biochemical; details: 1 µM, ATP at Km
T8 construct: purchased Millipore (KinaseProfiler) kinase panel

kainate = details: 10 µM, agonist radioligand
EGFR(T790M,L858R) = EGFR(T790M,L858R) (Homo sapiens, UniProt P00533, L858R/T790M); details: 1 µM, ATP at Km
cMET (M1268T) = cMET (M1268T) (Homo sapiens, UniProt P08581, M1250T); details: 1 µM, ATP at Km
DYRK2 = DYRK2 (Homo sapiens, UniProt Q92630); test: Kinase panel (Millipore); assay type: biochemical; details: 1 µM, ATP at Km
DAPK2 = DAPK2 (Homo sapiens, UniProt Q9UIK4); test: Kinase panel (Millipore); assay type: biochemical; details: 1 µM, ATP at Km
CRAF = CRAF (Homo sapiens, UniProt P04049); test: Kinase panel (Millipore); assay type: biochemical; details: 1 µM, ATP at Km
TXK = target: T9, TXK (Homo sapiens, UniProt P42681); test: Kinase panel (Millipore); assay type: biochemical; details: 1 µM, ATP at Km
T9 construct: purchased Millipore (KinaseProfiler) kinase panel

DAPK1 = target: T10, DAPK1 (Homo sapiens, UniProt P53355); test: Kinase panel (Millipore); assay type: biochemical; details: 1 µM, ATP at Km
T10 construct: purchased Millipore (KinaseProfiler) kinase panel

MAPKAP-K2 = target: T11, MAPKAP-K2 (Homo sapiens, UniProt P49137); test: Kinase panel (Millipore); assay type: biochemical; details: 1 µM, ATP at Km
T11 construct: purchased Millipore (KinaseProfiler) kinase panel

sst4 (h) = sst4 (h) (Homo sapiens, UniProt P31391); test: CEREP binding assay; details: agonist radioligand, read-out: % Inhibition of Control Specific Binding
TRKA = target: T12, TRKA (Homo sapiens, UniProt P04629); test: Kinase panel (Millipore); assay type: biochemical; details: 1 µM, ATP at Km
T12 construct: purchased Millipore (KinaseProfiler) kinase panel

TIE2(Y897S) = TIE2(Y897S) (Homo sapiens, UniProt Q02763, Y897S); details: 1 µM, ATP at Km
ROS = target: T13, ROS (Homo sapiens, UniProt P08922); test: Kinase panel (Millipore); assay type: biochemical; details: 1 µM, ATP at Km
T13 construct: purchased Millipore (KinaseProfiler) kinase panel

in vivo = details: male, rat, 0.2 mg/kg
MRCKBETA = target: T14, MRCKBETA (Homo sapiens, UniProt Q9Y5S2); test: Kinase panel (Millipore); assay type: biochemical; details: 1 µM, ATP at Km
T14 construct: purchased Millipore (KinaseProfiler) kinase panel

Ca2+ channel (N) = target: T15, Ca2+ channel (N) (Rattus norvegicus, UniProt Q02294); test: CEREP binding assay; details: antagonist radioligand, read-out: % Inhibition of Control Specific Binding
T15 construct: CEREP

HIPK1 = target: T16, HIPK1 (Homo sapiens, UniProt Q86Z02); test: Kinase panel (Millipore); assay type: biochemical; details: 1 µM, ATP at Km
T16 construct: purchased Millipore (KinaseProfiler) kinase panel

EPHA4 = target: T17, EPHA4 (Homo sapiens, UniProt P54764); test: Kinase panel (Millipore); assay type: biochemical; details: 1 µM, ATP at Km
T17 construct: purchased Millipore (KinaseProfiler) kinase panel

RIPK2 = RIPK2 (Homo sapiens, UniProt O43353); test: Kinase panel (Millipore); assay type: biochemical; details: 1 µM, ATP at Km
JAK2 = target: T18, JAK2 (Homo sapiens, UniProt O60674); test: Kinase panel (Millipore); assay type: biochemical; details: 1 µM, ATP at Km
T18 construct: purchased Millipore (KinaseProfiler) kinase panel

PRKX = target: T19, PRKX (Homo sapiens, UniProt P51817); test: Kinase panel (Millipore); assay type: biochemical; details: 1 µM, ATP at Km
T19 construct: purchased Millipore (KinaseProfiler) kinase panel

YES = YES (Homo sapiens, UniProt P07947); test: Kinase panel (Millipore); assay type: biochemical; details: 1 µM, ATP at Km
CKIT(V654A) = CKIT(V654A) (Homo sapiens, UniProt P10721, V654A); details: 1 µM, ATP at Km
FMS(Y969C) = FMS(Y969C) (Homo sapiens, UniProt P07333, Y969C); details: 1 µM, ATP at Km
CK1(Y) = test: Kinase panel (Millipore); assay type: biochemical; details: 1 µM, ATP at Km
TAO3 = target: T20, TAO3 (Homo sapiens, UniProt Q9H2K8); test: Kinase panel (Millipore); assay type: biochemical; details: 1 µM, ATP at Km
T20 construct: purchased Millipore (KinaseProfiler) kinase panel

MAO-A = target: T21, MAO-A (Rattus norvegicus, UniProt P21396); test: CEREP binding assay; details: antagonist radioligand, read-out: % Inhibition of Control Specific Binding
T21 construct: purchased Millipore (KinaseProfiler) kinase panel

FP (h) = target: T22, FP (h) (Homo sapiens, UniProt P43088); test: CEREP binding assay; details: agonist radioligand, read-out: % Inhibition of Control Specific Binding
T22 construct: purchased Millipore (KinaseProfiler) kinase panel

CKIT(V560G) = CKIT(V560G) (Homo sapiens, UniProt P10721, V560G); details: 1 µM, ATP at Km
Chain of CKIT(V560G) (P10721 544-976 V560G limits assumed): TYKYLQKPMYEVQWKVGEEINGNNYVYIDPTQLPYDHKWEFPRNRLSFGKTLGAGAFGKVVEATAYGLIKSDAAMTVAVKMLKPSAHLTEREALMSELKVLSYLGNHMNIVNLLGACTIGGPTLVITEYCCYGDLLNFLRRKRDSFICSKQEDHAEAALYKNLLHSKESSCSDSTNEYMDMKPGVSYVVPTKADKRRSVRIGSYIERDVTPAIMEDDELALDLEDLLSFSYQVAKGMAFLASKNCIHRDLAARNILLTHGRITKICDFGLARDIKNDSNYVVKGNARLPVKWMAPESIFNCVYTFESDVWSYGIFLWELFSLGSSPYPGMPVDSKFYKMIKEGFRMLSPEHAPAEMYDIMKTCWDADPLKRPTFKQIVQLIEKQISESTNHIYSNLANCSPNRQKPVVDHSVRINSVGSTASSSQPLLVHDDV

T5 sequence (Q13976 1-686 isoform Q13976-2): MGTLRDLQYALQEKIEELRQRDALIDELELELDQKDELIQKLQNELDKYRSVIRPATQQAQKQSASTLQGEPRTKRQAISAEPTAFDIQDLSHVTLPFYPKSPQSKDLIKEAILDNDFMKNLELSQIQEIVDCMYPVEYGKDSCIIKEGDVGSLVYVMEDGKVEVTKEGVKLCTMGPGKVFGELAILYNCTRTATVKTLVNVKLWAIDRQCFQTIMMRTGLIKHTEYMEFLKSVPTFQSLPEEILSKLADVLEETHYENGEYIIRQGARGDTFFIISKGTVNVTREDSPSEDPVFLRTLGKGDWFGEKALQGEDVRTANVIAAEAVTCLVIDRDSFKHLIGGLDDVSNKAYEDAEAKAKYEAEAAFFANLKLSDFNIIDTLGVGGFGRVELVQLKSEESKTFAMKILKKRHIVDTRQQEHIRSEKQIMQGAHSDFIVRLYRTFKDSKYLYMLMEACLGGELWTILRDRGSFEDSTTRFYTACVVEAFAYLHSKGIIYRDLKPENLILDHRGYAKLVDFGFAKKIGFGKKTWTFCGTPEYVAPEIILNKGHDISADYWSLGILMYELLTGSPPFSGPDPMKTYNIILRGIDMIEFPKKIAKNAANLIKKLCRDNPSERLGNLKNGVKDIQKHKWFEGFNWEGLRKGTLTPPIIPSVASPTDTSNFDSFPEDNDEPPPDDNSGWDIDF
T17 sequence (P54764 20-986): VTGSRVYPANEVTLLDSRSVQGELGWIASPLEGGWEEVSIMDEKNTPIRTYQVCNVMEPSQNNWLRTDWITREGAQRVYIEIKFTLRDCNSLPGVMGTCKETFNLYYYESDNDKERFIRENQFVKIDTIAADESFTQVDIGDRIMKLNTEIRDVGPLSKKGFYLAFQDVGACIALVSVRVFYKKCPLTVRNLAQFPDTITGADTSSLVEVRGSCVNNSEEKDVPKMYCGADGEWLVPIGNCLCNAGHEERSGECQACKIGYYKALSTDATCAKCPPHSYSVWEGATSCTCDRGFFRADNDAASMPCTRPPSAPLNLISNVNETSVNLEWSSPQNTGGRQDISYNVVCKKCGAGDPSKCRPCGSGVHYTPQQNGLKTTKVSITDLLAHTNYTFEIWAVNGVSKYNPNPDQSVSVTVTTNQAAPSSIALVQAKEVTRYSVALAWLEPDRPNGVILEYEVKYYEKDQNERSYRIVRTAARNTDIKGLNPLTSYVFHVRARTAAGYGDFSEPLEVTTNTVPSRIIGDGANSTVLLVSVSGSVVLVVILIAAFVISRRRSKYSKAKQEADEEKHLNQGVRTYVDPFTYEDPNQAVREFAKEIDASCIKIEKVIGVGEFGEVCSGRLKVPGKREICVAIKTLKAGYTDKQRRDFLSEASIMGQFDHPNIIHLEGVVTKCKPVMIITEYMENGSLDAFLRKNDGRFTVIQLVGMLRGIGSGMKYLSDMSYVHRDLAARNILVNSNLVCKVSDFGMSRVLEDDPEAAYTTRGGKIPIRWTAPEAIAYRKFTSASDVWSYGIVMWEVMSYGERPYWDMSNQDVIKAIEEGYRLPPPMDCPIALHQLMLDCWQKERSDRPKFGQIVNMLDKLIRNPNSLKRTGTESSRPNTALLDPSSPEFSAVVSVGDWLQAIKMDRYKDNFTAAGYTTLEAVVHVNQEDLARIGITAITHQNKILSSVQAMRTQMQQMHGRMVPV
T19 sequence (P51817 whole entry): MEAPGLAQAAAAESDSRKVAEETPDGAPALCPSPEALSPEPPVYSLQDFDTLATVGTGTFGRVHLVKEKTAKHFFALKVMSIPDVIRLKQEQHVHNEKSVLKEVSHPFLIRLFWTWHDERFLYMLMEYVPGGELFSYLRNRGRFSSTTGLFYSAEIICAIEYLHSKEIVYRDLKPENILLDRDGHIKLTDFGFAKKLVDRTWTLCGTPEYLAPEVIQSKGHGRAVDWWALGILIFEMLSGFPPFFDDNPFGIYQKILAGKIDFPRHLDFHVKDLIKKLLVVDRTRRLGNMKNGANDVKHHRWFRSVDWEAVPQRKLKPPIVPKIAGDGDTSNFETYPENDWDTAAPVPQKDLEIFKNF
Chain of PIM-2 (Q9P1W9 whole entry): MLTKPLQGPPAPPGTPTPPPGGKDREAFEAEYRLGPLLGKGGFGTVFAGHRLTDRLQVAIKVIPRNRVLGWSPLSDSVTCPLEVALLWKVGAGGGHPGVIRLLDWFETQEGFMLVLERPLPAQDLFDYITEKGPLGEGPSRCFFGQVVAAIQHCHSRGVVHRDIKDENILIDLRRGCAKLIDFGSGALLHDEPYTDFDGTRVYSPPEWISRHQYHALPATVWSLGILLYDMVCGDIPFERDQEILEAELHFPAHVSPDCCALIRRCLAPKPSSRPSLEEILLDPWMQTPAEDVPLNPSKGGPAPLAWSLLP
T15 sequence (Q02294 whole entry): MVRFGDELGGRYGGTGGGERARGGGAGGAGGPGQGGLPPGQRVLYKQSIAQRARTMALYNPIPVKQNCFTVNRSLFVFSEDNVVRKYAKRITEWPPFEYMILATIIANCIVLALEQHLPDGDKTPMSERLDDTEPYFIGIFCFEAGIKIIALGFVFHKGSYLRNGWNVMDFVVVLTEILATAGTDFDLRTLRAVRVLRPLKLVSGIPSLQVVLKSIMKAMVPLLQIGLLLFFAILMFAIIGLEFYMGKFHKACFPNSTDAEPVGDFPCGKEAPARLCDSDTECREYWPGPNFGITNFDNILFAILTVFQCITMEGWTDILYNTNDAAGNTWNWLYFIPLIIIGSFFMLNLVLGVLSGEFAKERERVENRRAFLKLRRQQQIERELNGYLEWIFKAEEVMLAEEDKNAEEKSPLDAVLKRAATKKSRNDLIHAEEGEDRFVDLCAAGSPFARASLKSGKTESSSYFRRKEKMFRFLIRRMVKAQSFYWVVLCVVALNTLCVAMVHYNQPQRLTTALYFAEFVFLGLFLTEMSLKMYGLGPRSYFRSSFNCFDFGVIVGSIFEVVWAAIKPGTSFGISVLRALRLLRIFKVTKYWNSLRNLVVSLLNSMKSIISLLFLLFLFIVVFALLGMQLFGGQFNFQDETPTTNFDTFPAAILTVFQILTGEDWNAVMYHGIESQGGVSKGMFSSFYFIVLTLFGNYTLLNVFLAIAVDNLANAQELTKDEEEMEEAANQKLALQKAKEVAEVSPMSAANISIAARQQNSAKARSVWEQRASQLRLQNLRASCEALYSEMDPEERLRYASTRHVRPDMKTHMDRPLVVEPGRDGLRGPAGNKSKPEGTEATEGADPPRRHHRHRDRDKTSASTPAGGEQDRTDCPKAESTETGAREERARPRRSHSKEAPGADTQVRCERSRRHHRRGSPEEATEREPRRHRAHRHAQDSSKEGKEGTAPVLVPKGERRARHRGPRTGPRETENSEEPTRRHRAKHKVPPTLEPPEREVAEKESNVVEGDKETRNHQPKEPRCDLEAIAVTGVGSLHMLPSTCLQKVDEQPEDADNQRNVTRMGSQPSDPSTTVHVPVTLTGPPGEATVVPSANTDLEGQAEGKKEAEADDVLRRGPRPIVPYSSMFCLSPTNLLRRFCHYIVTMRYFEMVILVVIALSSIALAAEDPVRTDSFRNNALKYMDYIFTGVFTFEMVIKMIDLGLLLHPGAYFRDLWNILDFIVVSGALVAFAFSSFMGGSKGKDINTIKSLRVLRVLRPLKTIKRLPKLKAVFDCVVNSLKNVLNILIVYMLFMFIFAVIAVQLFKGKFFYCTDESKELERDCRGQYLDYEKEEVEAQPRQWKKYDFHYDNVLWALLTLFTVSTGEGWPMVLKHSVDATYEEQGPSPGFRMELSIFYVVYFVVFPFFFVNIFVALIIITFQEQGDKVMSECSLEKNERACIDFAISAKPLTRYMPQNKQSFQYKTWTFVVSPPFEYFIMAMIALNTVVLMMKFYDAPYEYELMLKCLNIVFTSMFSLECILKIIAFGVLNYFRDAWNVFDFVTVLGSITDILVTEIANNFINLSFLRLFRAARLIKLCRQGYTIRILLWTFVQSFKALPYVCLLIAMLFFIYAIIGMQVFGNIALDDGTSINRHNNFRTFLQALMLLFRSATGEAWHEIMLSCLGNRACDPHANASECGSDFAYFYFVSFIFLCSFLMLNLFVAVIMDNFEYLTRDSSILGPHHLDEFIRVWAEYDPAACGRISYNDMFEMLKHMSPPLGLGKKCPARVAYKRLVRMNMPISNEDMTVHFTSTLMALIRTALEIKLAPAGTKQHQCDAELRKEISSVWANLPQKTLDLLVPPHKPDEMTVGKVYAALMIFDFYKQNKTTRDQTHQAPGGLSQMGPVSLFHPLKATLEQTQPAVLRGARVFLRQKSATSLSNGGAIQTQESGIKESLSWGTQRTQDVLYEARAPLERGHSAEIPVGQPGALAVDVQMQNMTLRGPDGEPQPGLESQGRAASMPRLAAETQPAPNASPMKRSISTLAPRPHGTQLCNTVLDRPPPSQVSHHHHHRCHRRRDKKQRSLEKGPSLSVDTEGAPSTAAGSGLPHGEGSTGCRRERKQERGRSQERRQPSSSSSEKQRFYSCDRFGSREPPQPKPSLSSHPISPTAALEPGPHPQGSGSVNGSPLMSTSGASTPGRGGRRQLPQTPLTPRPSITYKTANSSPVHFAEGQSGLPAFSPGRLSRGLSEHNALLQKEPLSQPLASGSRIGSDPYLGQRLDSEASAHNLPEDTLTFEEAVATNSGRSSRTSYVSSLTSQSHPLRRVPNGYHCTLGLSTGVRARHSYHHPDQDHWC

Cn1ncc2cc(-c3cnc(N)c(Cl)c3N3CCC4(CCNC4=O)CC3)ccc21 [Compound 109, 8-(2-Amino-3-chloro-5-(1-methyl-1H-indazol-5-yl)pyridin-4-yl)-2,8-diazaspiro[4.5]decan-1-one]
% effect (PLK3): -2%
% effect (cMET (D1246H)): -8%
LBF [1]: 10%
% effect (GSK3ALPHA): -18%
% effect (cMET (D1246N)): -2%
inhibition at 10 µM (motilin (h)): 12%
inhibition at 10 µM (MC1): -8%
% effect (MRCKALPHA): -3%
inhibition at 10 µM (beta 3 (h)): -16%
% effect (PKG1BETA): -7%
inhibition at 10 µM (ETB (h)): -23%
% effect (EPHA5): -9%
% effect (PIM-2): -1%
% effect (BMX): -6%
% Inhibition of Control Specific Binding (kainate): 9%
% effect (EGFR(T790M,L858R)): 0%
% effect (cMET (M1268T)): 1%
% effect (DYRK2): -9%
% effect (DAPK2): -7%
% effect (CRAF): -10%
% effect (TXK): -5%
% effect (DAPK1): -8%
% effect (MAPKAP-K2): 1%
inhibition at 10 µM (sst4 (h)): 9%
% effect (TRKA): 2%
% effect (TIE2(Y897S)): 0%
% effect (ROS): 8%
Vd (in vivo): 2 L/kg
clearance (in vivo; iv): 24.8 mL/min/kg
% effect (MRCKBETA): -35%
inhibition at 10 µM (Ca2+ channel (N)): -12%
% effect (HIPK1): 5%
% effect (EPHA4): 5%
% effect (RIPK2): 1%
% effect (JAK2): -20%
% effect (PRKX): -9%
% effect (YES): -2%
% effect (CKIT(V654A)): 9%
% effect (FMS(Y969C)): -43%
% effect (CK1(Y)): -1%
% effect (TAO3): -11%
inhibition at 10 µM (MAO-A): 8%
inhibition at 10 µM (FP (h)): -1%
% effect (CKIT(V560G)): -5%
